Drawing on BindingDB's records for doi:10.1021/jm2006222, this text covers IC50 for 1 compound.

The structures appear in SMILES notation.

This experiment concerns the target 3-phosphoinositide-dependent protein kinase 1 (Homo sapiens) (UniProt O15530). As to the kind of experiment: Inhibition of recombinant PDK1.

For the compound `CCN1CCN(c2ccc(Nc3cc(N(C)C(=O)Nc4c(Cl)c(OC)cc(OC)c4Cl)ncn3)cc2)CC1`, the IC50 is over 10 µM.
